Earlier results in patent US8535717B2, “Pharmaceutical composition” (Sun Pharma Advanced Research Company Limited, priority 2005, dated 2013).

## CC[C@@H](C(N)=O)N1CCCC1=O [levetiracetam]
Cannot be decreased by altering pH of the microenvironment
  solubility: 104 g/100 ml
water
  solubility in water: 104 g in 100 ml
